Data as given in patent US8586555B2, “Immunomodulatory compositions, formulations, and methods for use thereof” (Dynavax Technologies Corporation, priority 2001, dated 2013).

Tests used:
Format in all cases: cell-based
[1] = tested on: human peripheral blood mononuclear cells (hPBMC); assay: human PBMC assay, Example 5 (96 well plates, premixed); conditions: for IFN-α Mean / IFN-γ Mean: mean of donors 28051-28054
Procedure: (§1) Hexameric oligonucleotides were tested for immunomodulatory activity alone and complexed with lactic acid/glycolic acid copolymer microcarrier beads using a human peripheral blood mononuclear cells (hPBMC) assay. Peripheral blood was collected from healthy volunteers by venipuncture using heparinized syringes. Blood was layered onto a FICOLL® (Amersham Pharmacia Biotech) cushion and centrifuged. hPBMCs, located at the FICOLL® interface, were collected, then washed twice with cold phosphate buffered saline (PBS). The cells were resuspended and cultured in 48 well plates at 2×10^6 cells/mL at 37° C. in RPMI 1640 with 10% heat-inactivated human AB serum plus 50 units/mL penicillin, 50 μg/mL streptomycin, 300 μg/mL glutamine, 1 mM sodium pyruvate, and 1×MEM non-essential amino acids (NEAA).
(§2) Oligonucleotides were tested as single agents, or in combination with PLGA microspheres (unmodified or cationic). All oligonucleotides contained 100% phosphorothioate linkages and were tested at 20 μg/ml. The PLGA microcarriers were used at 250 μg/ml. When oligos were tested with PLGA microcarriers, the oligo and the microcarriers were added at the same time to the culture. The cells were cultured in the in the presence of test samples for 24 hours, then cell-free medium was collected from each well and assayed for IFN-γ and IFN-α concentration. Two different oligonucleotides were used as controls: a first oligonucleotide known to have immunostimulatory activity (a 22mer oligonucleotide containing an ISS (“ISS+,” 5′-[…]-3′(SEQ ID NO:2)) and a second oligonucleotide of similar sequence but lacking immunostimulatory activity (“ISS−,” 5′-[…]-3′ (SEQ ID NO:1)). SAC (PANSORBIN® CalBiochem, 1/5000 dilution) and a untreated culture were used as additional positive and negative controls, respectively. SAC contains Staph. aureus (Cowan I) cell material. All samples were assayed in duplicate.
(§3) IFN-γ and IFN-α were assayed using CYTOSCREEN™ ELISA kits from BioSource International, Inc., according to the manufacturer's instructions.
(§4) The immunomodulatory activity of the oligonucleotides used in Examples 3 and 4 was confirmed with the human PBMC assay using PBMCs from an additional four donors (donors 28051-28054). Oligonucleotides were tested alone or in combination with cationic PLGA as described in Example 3, except that 96 well plates were used instead of 48 well plates and the oligonucleotides were premixed with the cationic microspheres at room temperature for 15 minutes before they were added to the culture, rather than being added simultaneously to the culture.

[2] = tested on: human peripheral blood mononuclear cells (hPBMC); assay: human PBMC assay, Example 4 (oligos and PLGA premixed 15 minutes); conditions: for IFN-α Mean / IFN-γ Mean: mean of donors 28044, 28045
Procedure: as §1, §2, §3
Additional hexameric and pentameric oligonucleotides were tested for immunomodulatory activity in the PBMC assay. Oligonucleotides 6-6 (5′-TCGAGA-3′), 6-8 (5′-GTCGAC-3′), 6-9 (5′-GTCGTT-3′), 6-2 (5′-TCGTTT-3′), 6-3 (5′-TTCGTT-3′), 6-4 (5′-TTTCGT-3′), 5-1 (5′-TCGTC-3′), and 5-2 (5′-TCGTT-3′) were tested alone or in combination with cationic PLGA as described in Example 3 except that the oligos and PLGA were premixed for 15 minutes room temperature before addition to the cultures. The test articles were assayed using PBMC isolated from donors 28044 and 28045.

[3] = tested on: human peripheral blood mononuclear cells (hPBMC); assay: human PBMC assay, Example 7 (oligo 20 μg/ml, cPLGA 100 μg/ml); conditions: for IFN-α Mean / IFN-γ Mean: mean of donors 28115-28118
Procedure: as §1, §2, §3, §4
Additional oligonucleotides, some incorporating modified bases, were tested for immunomodulatory activity in the human PBMC assay. Oligonucleotides were tested alone or in combination with cPLGA as described in Example 5. The oligonucleotides were premixed with the cationic PLGA microspheres for 15 minutes at room temperature at concentrations of 20 μg/ml and 100 μg/ml, respectively.

[4] = tested on: human peripheral blood mononuclear cells (hPBMC); assay: human PBMC assay, Example 6
Procedure: as §1, §2, §3, §4
Additional oligonucleotides were tested for immunomodulatory activity in the human PBMC assay. Oligonucleotides were tested alone or in combination with cPLGA as described in Example 5.
Additional oligonucleotides were tested using hPBMCs from volunteers 154-157 using the same assay. Results, which are shown in Table 7, confirm the activity of oligonucleotides fitting the formula 5′-X1TCGX2-3′, where the oligonucleotide is a 3-6mer, X1 is zero or one nucleotide and X2 is zero to three nucleotides.

[5] = delivered as IMO/MC complexes (cPLGA)

Row | Substance | immunomodulatory activity ([1]; delivered alone) | immunomodulatory activity [1, 5] | IFN-α ([1]; donor 28051) | IFN-γ ([1]; donor 28051) | IFN-α ([1]; donor 28052) | IFN-γ ([1]; donor 28052) | IFN-α ([1]; donor 28053) | IFN-γ ([1]; donor 28053) | IFN-α ([1]; donor 28054) | IFN-γ ([1]; donor 28054) | IFN-α Mean [1] | IFN-γ Mean [1] | IFN-α ([2]; donor 28044) | IFN-γ ([2]; donor 28044) | IFN-α ([2]; donor 28045) | IFN-γ ([2]; donor 28045) | IFN-α Mean [2] | IFN-γ Mean [2] | IFN-α ([3]; donor 28115) | IFN-γ ([3]; donor 28115) | further results
1 | 5′-TCGTC-3′ [Oligonucleotide 5-1] | inactive | highly active | 0 pg/mL | 1 pg/mL | 3 pg/mL | 0 pg/mL | 1 pg/mL | 1 pg/mL | 1 pg/mL | 0 pg/mL | 1 pg/mL | 1 pg/mL | 0 pg/mL | 6 pg/mL | 0 pg/mL | 7 pg/mL | 0 pg/mL | 6 pg/mL |  |  | 
2 | 5′-TCGTT-3′ [Oligonucleotide 5-2] | inactive | highly active | 1 pg/mL | 1 pg/mL | 5 pg/mL | 0 pg/mL | 0 pg/mL | 0 pg/mL | 2 pg/mL | 1 pg/mL | 2 pg/mL | 0 pg/mL | 0 pg/mL | 4 pg/mL | 0 pg/mL | 0 pg/mL | 0 pg/mL | 2 pg/mL | 0 pg/mL | 8 pg/mL | immunomodulatory activity ([3]; combined with cPLGA): active in two of four donors; IFN-α ([3]; donor 28116): 0 pg/mL; IFN-γ ([3]; donor 28116): 4 pg/mL; IFN-α ([3]; donor 28117): 0 pg/mL; IFN-γ ([3]; donor 28117): 8 pg/mL; IFN-α ([3]; donor 28118): 0 pg/mL; IFN-γ ([3]; donor 28118): 0 pg/mL; IFN-α Mean [3]: 0 pg/mL; IFN-γ Mean [3]: 5 pg/mL
3 | 5′-TCGTTT-3′ [Oligonucleotide 6-2] | inactive | highly active | 0 pg/mL | 1 pg/mL | 2 pg/mL | 0 pg/mL | 10 pg/mL | 3 pg/mL | 0 pg/mL | 1 pg/mL | 3 pg/mL | 1 pg/mL | 0 pg/mL | 30 pg/mL | 0 pg/mL | 0 pg/mL | 0 pg/mL | 15 pg/mL | 0 pg/mL | 3 pg/mL | immunomodulatory activity ([4]; delivered as oligonucleotide/MC complex (cPLGA)): highly active; IFN-α ([4]; donor 28075): 36 pg/mL; IFN-γ ([4]; donor 28075): 8 pg/mL; IFN-α ([4]; donor 28076): 6 pg/mL; IFN-γ ([4]; donor 28076): 18 pg/mL; IFN-α ([4]; donor 28077): 66 pg/mL; IFN-γ ([4]; donor 28077): 5 pg/mL; IFN-α ([4]; donor 28078): 101 pg/mL; IFN-γ ([4]; donor 28078): 14 pg/mL; IFN-α Mean ([4]; mean of donors 28075-28078): 53 pg/mL; IFN-γ Mean ([4]; mean of donors 28075-28078): 11 pg/mL; IFN-α ([3]; donor 28116): 0 pg/mL; IFN-γ ([3]; donor 28116): 0 pg/mL; IFN-α ([3]; donor 28117): 0 pg/mL; IFN-γ ([3]; donor 28117): 5 pg/mL; IFN-α ([3]; donor 28118): 0 pg/mL; IFN-γ ([3]; donor 28118): 0 pg/mL; IFN-α Mean [3]: 0 pg/mL; IFN-γ Mean [3]: 2 pg/mL
4 | 5′-TTCGTT-3′ [Oligonucleotide 6-3] | inactive | highly active | 0 pg/mL | 1 pg/mL | 5 pg/mL | 0 pg/mL | 5 pg/mL | 5 pg/mL | 0 pg/mL | 0 pg/mL | 3 pg/mL | 2 pg/mL | 0 pg/mL | 6 pg/mL | 0 pg/mL | 0 pg/mL | 0 pg/mL | 3 pg/mL |  |  | 
5 | 5′-TTTCGT-3′ [Oligonucleotide 6-4] |  | variable activity | 0 pg/mL | 3 pg/mL | 2 pg/mL | 0 pg/mL | 11 pg/mL | 2 pg/mL | 0 pg/mL | 0 pg/mL | 3 pg/mL | 1 pg/mL | 0 pg/mL | 13 pg/mL | 0 pg/mL | 0 pg/mL | 0 pg/mL | 6 pg/mL |  |  | 
